Like-named read-outs stand apart in the source and are kept apart here.
Experiments:
[1] = biological target: T1, EGFR (Homo sapiens, UniProt P00533); assay: Enzyme inhibitory activity on EGFR (time resolution fluorescence, biotinylated poly-Glu-Tyr substrate); assay type: biochemical
T1 construct: purchased Carna Biosciences, Inc; host or cells: insect cell expression system
Procedure, shortened: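 Insect-cell-expressed EGFR phosphorylated biotinylated poly-Glu-Tyr (4:1) for 60 min at room temperature in TBS with MgCl2, MnCl2, Na3VO4 and BSA. Enzyme 250 ng/ml, substrate 3.125 μg/ml and ATP 125 μM as working solutions. EDTA stop; Eu anti-phosphotyrosine/streptavidin-XL time-resolved fluorescence read; 10-point 4-fold dilutions.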

[2] = biological target: T2, HER2 (Homo sapiens, UniProt P04626); assay: Enzyme inhibitory activity on HER2 (time resolution fluorescence, biotinylated poly-Glu-Tyr substrate); assay type: biochemical
T2 construct: purchased Carna Biosciences, Inc; host or cells: insect cell expression system
T2 sequence (P04626 23-1255): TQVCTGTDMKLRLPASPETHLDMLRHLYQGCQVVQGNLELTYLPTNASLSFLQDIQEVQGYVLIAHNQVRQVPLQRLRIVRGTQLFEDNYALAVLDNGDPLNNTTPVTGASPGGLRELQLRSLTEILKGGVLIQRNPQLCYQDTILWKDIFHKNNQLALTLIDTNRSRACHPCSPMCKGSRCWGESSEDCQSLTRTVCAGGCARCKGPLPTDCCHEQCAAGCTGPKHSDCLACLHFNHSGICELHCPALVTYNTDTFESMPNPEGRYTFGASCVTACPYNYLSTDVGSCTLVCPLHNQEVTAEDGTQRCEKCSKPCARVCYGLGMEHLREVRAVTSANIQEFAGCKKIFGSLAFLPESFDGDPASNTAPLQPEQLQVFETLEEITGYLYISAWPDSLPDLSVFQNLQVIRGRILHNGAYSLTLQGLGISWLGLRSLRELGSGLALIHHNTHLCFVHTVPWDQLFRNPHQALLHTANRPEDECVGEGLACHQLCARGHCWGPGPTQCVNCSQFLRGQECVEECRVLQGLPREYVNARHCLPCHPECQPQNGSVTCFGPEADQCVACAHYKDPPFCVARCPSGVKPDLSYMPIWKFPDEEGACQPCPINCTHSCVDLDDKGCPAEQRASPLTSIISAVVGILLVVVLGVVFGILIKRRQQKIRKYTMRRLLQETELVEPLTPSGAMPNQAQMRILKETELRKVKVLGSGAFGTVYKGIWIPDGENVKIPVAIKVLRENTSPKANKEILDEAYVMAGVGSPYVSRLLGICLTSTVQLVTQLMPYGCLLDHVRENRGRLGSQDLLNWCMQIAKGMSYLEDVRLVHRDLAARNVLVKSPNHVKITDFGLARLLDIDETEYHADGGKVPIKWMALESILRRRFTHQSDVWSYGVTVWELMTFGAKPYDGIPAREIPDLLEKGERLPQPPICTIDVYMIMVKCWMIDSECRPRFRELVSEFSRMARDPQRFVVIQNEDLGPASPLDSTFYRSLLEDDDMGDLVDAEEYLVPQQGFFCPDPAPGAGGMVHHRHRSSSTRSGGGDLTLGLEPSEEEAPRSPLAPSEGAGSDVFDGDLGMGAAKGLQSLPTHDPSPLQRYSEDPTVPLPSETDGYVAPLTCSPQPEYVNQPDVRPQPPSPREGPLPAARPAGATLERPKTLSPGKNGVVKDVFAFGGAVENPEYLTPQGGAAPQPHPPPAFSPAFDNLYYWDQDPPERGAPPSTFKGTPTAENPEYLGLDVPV
Procedure, shortened: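 Insect-cell-expressed HER2 (1000 ng/ml working stock) with biotinylated poly-Glu-Tyr (4:1; 3.125 μg/ml stock) and ATP (290 μM solution) in TBS with MgCl2, MnCl2, Na3VO4 and BSA, 60 min at room temperature. 10-point 4-fold dilutions from a 1 mM top solution. Phosphotyrosine detected by TR-FRET with Eu-antibody and streptavidin-XL.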

[3] = tested on: BT-474; assay: In vitro cell proliferation inhibition, WST assay; assay type: cell-based, human; conditions: BT-474 cells, cultured for 3 days, read-out: BT-474 (nM) proliferation inhibitory activity (IC50 value)
Protocol: Test of In Vitro Cell Proliferation Inhibition of Test Compound
As a human-derived cancer cell strain, BT-474 was used. Cells were all cultured in a 37° C., 5% CO2 incubator in a medium in which 10% bovine fetal serum (ICN) and 50 units ml penicillin/60 μg/ml streptomycin solution (GIBCO) were added to Dulbecco's Modified Essential Medium (DMEM, Nacalai Tesque, Inc).

[4] = enzyme reaction at room temperature for 60 minutes
[5] = EGFR purified from insect cell expression system, ATP solution 125 μM, room temperature, 60 minutes
[6] = HER2 purified from insect cell expression system, ATP solution 290 μM, room temperature, 60 minutes

T1 sequence (P00533 25-1210): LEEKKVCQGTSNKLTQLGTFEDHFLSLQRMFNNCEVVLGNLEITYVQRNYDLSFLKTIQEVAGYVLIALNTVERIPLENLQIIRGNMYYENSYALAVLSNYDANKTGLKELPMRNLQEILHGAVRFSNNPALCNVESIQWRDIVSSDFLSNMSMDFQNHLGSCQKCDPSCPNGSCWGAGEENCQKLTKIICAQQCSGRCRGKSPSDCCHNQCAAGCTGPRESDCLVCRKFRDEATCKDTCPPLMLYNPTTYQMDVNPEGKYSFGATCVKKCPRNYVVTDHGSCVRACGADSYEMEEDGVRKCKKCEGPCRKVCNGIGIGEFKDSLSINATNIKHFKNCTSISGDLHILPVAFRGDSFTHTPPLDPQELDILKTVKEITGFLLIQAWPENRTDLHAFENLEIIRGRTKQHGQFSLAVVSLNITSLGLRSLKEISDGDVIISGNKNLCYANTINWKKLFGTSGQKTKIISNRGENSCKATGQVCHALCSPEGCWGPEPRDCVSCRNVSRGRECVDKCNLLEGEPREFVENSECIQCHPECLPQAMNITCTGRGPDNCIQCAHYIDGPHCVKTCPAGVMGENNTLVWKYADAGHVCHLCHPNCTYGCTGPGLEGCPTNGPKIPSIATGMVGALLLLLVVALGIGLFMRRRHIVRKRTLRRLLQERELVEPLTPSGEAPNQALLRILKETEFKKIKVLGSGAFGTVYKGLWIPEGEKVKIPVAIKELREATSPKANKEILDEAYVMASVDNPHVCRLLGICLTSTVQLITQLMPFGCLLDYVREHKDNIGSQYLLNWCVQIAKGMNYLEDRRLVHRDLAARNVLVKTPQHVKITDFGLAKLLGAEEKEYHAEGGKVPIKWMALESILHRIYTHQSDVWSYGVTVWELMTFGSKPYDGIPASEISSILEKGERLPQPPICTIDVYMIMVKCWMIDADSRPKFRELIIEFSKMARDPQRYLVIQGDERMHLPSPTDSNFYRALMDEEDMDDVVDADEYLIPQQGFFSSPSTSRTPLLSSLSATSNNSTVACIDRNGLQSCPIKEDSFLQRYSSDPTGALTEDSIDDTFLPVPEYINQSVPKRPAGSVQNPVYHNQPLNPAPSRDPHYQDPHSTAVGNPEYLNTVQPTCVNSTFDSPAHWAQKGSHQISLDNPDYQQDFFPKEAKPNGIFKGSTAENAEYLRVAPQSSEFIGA

SMILES | IC50 [1, 4] | IC50 [2, 4] | IC50 ([3]; Homo sapiens, BT-474, 72 h) | IC50 [1, 5] | IC50 [2, 6] | IC50 [3]
CC#C/C(=N\OC[C@H]1CNCCO1)c1ccc2ncnc(Nc3ccc(OCc4ccccn4)c(Cl)c3)c2c1 [VIII-173] | 4.8 nM | 3.9 nM | 40 nM |  |  | 
CC#C/C(=N\OC[C@H]1CCCN1CCO)c1ccc2ncnc(Nc3ccc(OCc4cccc(F)c4)c(Cl)c3)c2c1 [VIII-90] |  |  |  | 93 nM | 97 nM | 9 nM
CC#C/C(=N\OCCN1CCCC1)c1ccc2ncnc(Nc3ccc(OCc4ccccn4)c(Cl)c3)c2c1 [VIII-148] | 6.1 nM | 5.8 nM | 26 nM |  |  | 
CC#C/C(=N\OC[C@@H]1CCC(=O)N1)c1ccc2ncnc(Nc3ccc(OCc4cccc(F)c4)c(Cl)c3)c2c1 [VIII-83] |  |  |  | 164 nM | 121 nM | 13 nM
CC#C/C(=N\OC[C@@H]1COCCN1)c1ccc2ncnc(Nc3ccc(OCc4ccccn4)c(Cl)c3)c2c1 [VIII-169] | 13 nM | 15 nM | 35 nM |  |  | 
CC#CC(=NOCCN1CCC(NC(C)=O)C1)c1ccc2ncnc(Nc3ccc(OCc4cccc(F)c4)c(Cl)c3)c2c1 (stereo not drawn) [VIII-70] |  |  |  | 63 nM | 31 nM | 7 nM
CC#C/C(=N\OCCNC1CCOCC1)c1ccc2ncnc(Nc3ccc(OCc4ccccn4)c(Cl)c3)c2c1 [VIII-141] | 10 nM | 7.9 nM | 46 nM |  |  | 
CNCCO/N=C(\C#CCOC)c1ccc2ncnc(Nc3ccc(S(=O)(=O)c4ccccc4)cc3)c2c1 [VIII-208] | 28 nM | 23 nM | 27 nM |  |  | 
CC#C/C(=N\OCCNC1CCN(C(C)=O)CC1)c1ccc2ncnc(Nc3ccc(OCc4cccc(F)c4)c(Cl)c3)c2c1 [VIII-61] |  |  |  | 30 nM | 24 nM | 11 nM
CC#C/C(=N\OC[C@H]1CNC[C@H](C)O1)c1ccc2ncnc(Nc3ccc(OCc4ccccn4)c(Cl)c3)c2c1 [VIII-178] | 8.1 nM | 8.2 nM | 36 nM |  |  | 
CC#C/C(=N\OCC1COCCN1)c1ccc2ncnc(Nc3ccc(COc4cccc(F)c4)c(Cl)c3)c2c1 (stereo not drawn) [VIII-220] | 263 nM | 449 nM | 23 nM |  |  | 
CC#C/C(=N\OC[C@@H]1CCCN1C)c1ccc2ncnc(Nc3ccc(OCc4ccccn4)c(Cl)c3)c2c1 [VIII-154] | 9.5 nM | 9 nM | 31 nM |  |  | 
CC#C/C(=N\OCCNC[C@H]1CCC(=O)N1)c1ccc2ncnc(Nc3ccc4c(cnn4Cc4cccc(F)c4)c3)c2c1 [VIII-190] | 8.9 nM | 11.1 nM | 14 nM |  |  | 
CC#C/C(=N\OC[C@@H]1CNCC(=O)N1)c1ccc2ncnc(Nc3ccc(OCc4cccc(F)c4)c(Cl)c3)c2c1 [VIII-119] |  |  |  | 81 nM | 77 nM | 31 nM
Fc1cccc(COc2ccc(Nc3ncnc4ccc(/C=N/OCCN5CCOCC5)cc34)cc2Cl)c1 [Compound V-7] |  |  | 134 nM | 36 nM | 76 nM | 
CC#C/C(=N\OC[C@H]1NC(=O)O[C@@H]1C)c1ccc2ncnc(Nc3ccc(OCc4cccc(F)c4)c(Cl)c3)c2c1 [VIII-76] |  |  | 12 nM | 162 nM | 216 nM | 
CC#C/C(=N\OCCNC[C@H]1CCCO1)c1ccc2ncnc(Nc3ccc(OCc4cccc(F)c4)c(Cl)c3)c2c1 [VIII-48] |  |  |  | 44 nM | 15 nM | 28 nM
CC#C/C(=N\OCCNCCCN1CCCC1=O)c1ccc2ncnc(Nc3ccc(OCc4ccccn4)c(Cl)c3)c2c1 [VIII-133] | 8.4 nM | 7.1 nM | 43 nM |  |  | 
CC#C/C(=N\OC[C@@H]1COCCN1)c1ccc2ncnc(Nc3ccc(S(=O)(=O)c4ccccc4)cc3)c2c1 [VIII-207] | 21 nM | 17 nM | 68 nM |  |  | 
CC#C/C(=N\OC[C@@H](COC)NC)c1ccc2ncnc(Nc3ccc(OCc4ccccn4)c(Cl)c3)c2c1 [VIII-131] | 5.8 nM | 4.4 nM | 14 nM |  |  | 
CC#C/C(=N\OC1CNC1)c1ccc2ncnc(Nc3ccc(OCc4cccc(F)c4)c(Cl)c3)c2c1 [VIII-68] |  |  |  | 19 nM | 25 nM | 41 nM
CC#CC(=NOCC1CCC(=O)N1)c1ccc2ncnc(Nc3ccc(OCc4cccc(F)c4)c(Cl)c3)c2c1 (stereo not drawn) [VIII-78] |  |  |  | 111 nM | 410 nM | 35 nM
CC#C/C(=N\OC[C@@H]1COCCN1)c1ccc2ncnc(Nc3ccc(OCc4cccc(F)c4)c(Cl)c3)c2c1 [VIII-101] |  |  |  | 56 nM | 129 nM | 12 nM

SMILES | IC50 [1, 4] | IC50 [2, 4] | IC50 ([3]; Homo sapiens, BT-474, 72 h) | IC50 [1, 5] | IC50 [2, 6] | IC50 [3]
CC#CC(=NOC1CNC(CO)C1)c1ccc2ncnc(Nc3ccc(OCc4cccc(F)c4)c(Cl)c3)c2c1 (stereo not drawn) [VIII-80] |  |  |  | 23 nM | 29 nM | 35 nM
CC#C/C(=N\OCC1COCCN1)c1ccc2ncnc(Nc3ccc(Oc4ccc(C)nc4)c(C)c3)c2c1 (stereo not drawn) [VIII-218] | 76 nM | 22 nM | 41 nM |  |  | 
CC#CC(=NOCC1CN(C)CCN1C)c1ccc2ncnc(Nc3ccc(OCc4cccc(F)c4)c(Cl)c3)c2c1 (stereo not drawn) [VIII-108] |  |  | 31 nM | 53 nM | 56 nM | 
CS(=O)(=O)CCNCCON=C(c1ccccc1)c1ccc2ncnc(Nc3ccc(OCc4cccc(F)c4)c(Cl)c3)c2c1 [VIII-29] |  |  | 77 nM | 102 nM | 513 nM | 
CC#C/C(=N\OC[C@H]1COCCN1)c1ccc2ncnc(Nc3ccc(OCc4cccc(F)c4)c(Cl)c3)c2c1 [VIII-102] |  |  |  | 72 nM | 121 nM | 7 nM
CC#C/C(=N\OC[C@H]1NCCO[C@@H]1C)c1ccc2ncnc(Nc3ccc(OCc4cccc(F)c4)c(Cl)c3)c2c1 [VIII-107] |  |  |  | 150 nM | 135 nM | 23 nM
CC/C(=N\OCCNC)c1ccc2ncnc(Nc3ccc(OCc4cccc(F)c4)c(Cl)c3)c2c1 [VIII-20] |  |  | 37 nM | 29 nM | 31 nM | 
CC#C/C(=N\OCCNC)c1ccc2ncnc(Nc3ccc4c(cnn4Cc4cccc(F)c4)c3)c2c1 [VIII-183] | 7.1 nM | 8.3 nM | 10 nM |  |  | 
CC#C/C(=N\OCCNC[C@@H]1CCCO1)c1ccc2ncnc(Nc3ccc(OCc4ccccn4)c(Cl)c3)c2c1 [VIII-137] | 13 nM | 14 nM | 78 nM |  |  | 
CC#C/C(=N\OCCN(C)CCOC)c1ccc2ncnc(Nc3ccc(OCc4ccccn4)c(Cl)c3)c2c1 [VIII-146] | 12 nM | 10 nM | 45 nM |  |  | 
CC#C/C(=N\OCCNCCS(C)(=O)=O)c1ccc2ncnc(Nc3ccc(OCc4ccccn4)c(Cl)c3)c2c1 [VIII-132] | 14 nM | 14 nM | 18 nM |  |  | 
CC#C/C(=N\OC[C@@H]1CCCN1CC#N)c1ccc2ncnc(Nc3ccc(OCc4cccc(F)c4)c(Cl)c3)c2c1 [VIII-73] |  |  |  | 275 nM | 199 nM | 12 nM
CCCC#CC(=NOCCNC)c1ccc2ncnc(Nc3ccc(OCc4cccc(F)c4)c(Cl)c3)c2c1 [VIII-127] | 37 nM | 35 nM |  |  |  | 61 nM
CC#C/C(=N\OCCNCCS(C)(=O)=O)c1ccc2ncnc(Nc3ccc(OCc4cccc(F)c4)c(Cl)c3)c2c1 [VIII-45] |  |  |  | 58 nM | 152 nM | 13 nM
CC#C/C(=N\OCCNC1CCN(S(C)(=O)=O)CC1)c1ccc2ncnc(Nc3ccc(OCc4cccc(F)c4)c(Cl)c3)c2c1 [VIII-60] |  |  |  | 54 nM | 30 nM | 14 nM
CC#C/C(=N\OC[C@@H]1CCCN1CCO)c1ccc2ncnc(Nc3ccc(OCc4ccccn4)c(Cl)c3)c2c1 [VIII-160] | 17 nM | 18 nM | 47 nM |  |  | 
CC#C/C(=N\OCCN1CCCC(O)C1)c1ccc2ncnc(Nc3ccc(OCc4ccccn4)c(Cl)c3)c2c1 (stereo not drawn) [VIII-128] | 15 nM | 17 nM | 37 nM |  |  | 
CC#C/C(=N\OCCN1CCOCC1)c1ccc2ncnc(Nc3ccc(OCc4ccccn4)c(Cl)c3)c2c1 [VIII-163] | 23 nM | 27 nM | 38 nM |  |  | 
CC#C/C(=N\OCCNCC(F)(F)F)c1ccc2ncnc(Nc3ccc(OCc4cccc(F)c4)c(Cl)c3)c2c1 [VIII-57] |  |  |  | 301 nM | 303 nM | 15 nM
CC#C/C(=N\OCCN1CCC(N)CC1)c1ccc2ncnc(Nc3ccc(OCc4cccc(F)c4)c(Cl)c3)c2c1 [VIII-98] |  |  |  | 21 nM | 21 nM | 65 nM
CC#C/C(=N\OCCN(C)CCO)c1ccc2ncnc(Nc3ccc(OCc4ccccn4)c(Cl)c3)c2c1 [VIII-145] | 9.4 nM | 8.9 nM | 21 nM |  |  | 
CC#C/C(=N\OCCN1CCC(O)CC1)c1ccc2ncnc(Nc3ccc(OCc4cccc(F)c4)c(Cl)c3)c2c1 [VIII-97] |  |  |  | 19 nM | 22 nM | 11 nM
CC#C/C(=N\OCCNC[C@@H](C)CO)c1ccc2ncnc(Nc3ccc(OCc4ccccn4)c(Cl)c3)c2c1 [VIII-139] | 5 nM | 3.8 nM | 32 nM |  |  | 

From US8202879B2, “Quinazoline derivatives having tyrosine kinase inhibitory activity” (Shionogi & Co., Ltd., priority 2005, dated 2012)
